In ChEMBL document CHEMBL5154898, “Discovery and Optimization of 5-Hydroxy-Diclofenac toward a New Class of Ligands with Nanomolar Affinity for the CaMKIIα Hub Domain” (J Med Chem, 2022):

Tests used:
[1] = target: T1, Calcium/calmodulin-dependent protein kinase type II subunit alpha (Rattus norvegicus, UniProt P11275); experiment: Displacement of [3H]NCS-382 from CaMK2alpha in rat brain cerebral cortex membrane homogenates assessed as inhibition constant measured after 60 mins by TopCount scintillation counting method; type: cell membranes
[2] = target: T1, Calcium/calmodulin-dependent protein kinase type II subunit alpha; experiment: Displacement of [3H]HOCPCA from CaMK2alpha in rat brain cerebral cortex membrane homogenates assessed as inhibition constant measured after 60 mins by TopCount scintillation counting method; type: cell membranes
MDR1 (P-gp) [3] = experiment: Apparent permeability across basolateral to apical side in dog MDCKII-MDR1 cells at 3 uM measured after 60 to 90 mins by LC-MS/MS analysis; type: ADME, cell-based, Canis lupus familiaris; details: MDCK-MDR1, time 60-90 min
[4] = Chemical stability of compound in PBS buffer at pH 7.4 assessed as half life at 25 degreeC incubated for 7 days by HPLC based LC-MS analysis; type: physicochemical; details: time 7 day
[5] = Chemical stability of compound in PBS buffer at pH 7.4 assessed as half life at 37 degreeC incubated for 7 days by HPLC based LC-MS analysis; type: physicochemical; details: time 7 day
BCRP [6] = experiment: Apparent permeability across basolateral to apical side in dog MDCK-II cells expressing BCRP at 3 uM preincubated with BCRP inhibitor, Ko 143 for 15 to 30 mins followed by compound addition and measured after 60 to 90 mins by LC-MS/MS analysis; type: ADME, cell-based, Canis lupus familiaris; details: with Ko 143 (BCRP inhibitor; concentration not stated), time 60-90 min
[7] = Ratio of drug concentration in brain to plasma in C57BL/6J mouse at 5 mg/kg , sc measured after 30 mins by UPLC based tandem mass spectrometry analysis; type: ADME, organism-based; details: read-out: BPR
MDR1 (P-gp) [8] = experiment: Apparent permeability across apical to basolateral side in dog MDCKII-MDR1 cells at 3 uM measured after 60 to 90 mins by LC-MS/MS analysis; type: ADME, cell-based, Canis lupus familiaris; details: MDCK-MDR1, time 60-90 min
[9] = Plasma concentration in C57BL/6J mouse at 5 mg/kg , sc measured after 30 mins by UPLC based tandem mass spectrometry analysis; type: ADME, organism-based
MDR1 (P-gp) [10] = experiment: Apparent permeability across apical to basolateral side in dog MDCKII-MDR1 cells at 3 uM preincubated with P-gp inhibitor elacridar for 15 to 30 mins followed by compound addition and measured after 60 to 90 mins by LC-MS/MS analysis; type: ADME, cell-based, Canis lupus familiaris; details: MDCK-MDR1, with elacridar (P-gp inhibitor; concentration not stated), time 60-90 min
BCRP [11] = experiment: Apparent permeability across apical to basolateral side in dog MDCK-II cells expressing BCRP at 3 uM measured after 60 to 90 mins by LC-MS/MS analysis; type: ADME, cell-based, Canis lupus familiaris; details: time 60-90 min
BCRP [12] = experiment: Apparent permeability across apical to basolateral side in dog MDCK-II cells expressing BCRP at 3 uM preincubated with BCRP inhibitor, Ko 143 for 15 to 30 mins followed by compound addition and measured after 60 to 90 mins by LC-MS/MS analysis; type: ADME, cell-based, Canis lupus familiaris; details: with Ko 143 (BCRP inhibitor; concentration not stated), time 60-90 min
MDR1 (P-gp) [13] = experiment: Apparent permeability across basolateral to apical side in dog MDCKII-MDR1 cells at 3 uM preincubated with P-gp inhibitor elacridar for 15 to 30 mins followed by compound addition and measured after 60 to 90 mins by LC-MS/MS analysis; type: ADME, cell-based, Canis lupus familiaris; details: MDCK-MDR1, with elacridar (P-gp inhibitor; concentration not stated), time 60-90 min
[14] = Brain concentration in C57BL/6J mouse at 5 mg/kg , sc measured after 30 mins by UPLC based tandem mass spectrometry analysis; type: ADME, organism-based; details: read-out: Ct
BCRP [15] = experiment: Apparent permeability across basolateral to apical side in dog MDCK-II cells expressing BCRP at 3 uM measured after 60 to 90 mins by LC-MS/MS analysis; type: ADME, cell-based, Canis lupus familiaris; details: time 60-90 min
[16] = target: Calcium/calmodulin-dependent protein kinase type II subunit alpha (Rattus norvegicus) (UniProt P11275); experiment: Inhibition of [3H]NCS-382 binding to CaMK2alpha in rat brain cerebral cortex membrane homogenates at 100 uM measured after 60 mins by TopCount scintillation counting method relative to control; type: cell membranes
[17] = target: Calcium/calmodulin-dependent protein kinase type II subunit alpha (Homo sapiens, UniProt Q9UQM7); experiment: Inhibition of [3H]NCS-382 binding to CaMK2alpha (unknown origin)
[18] = target: T1, Calcium/calmodulin-dependent protein kinase type II subunit alpha; experiment: Inhibition of [3H]NCS-382 binding to CaMK2alpha in rat cerebrocortical membranes; type: cell membranes, Cerebral cortex, Membrane
[19] = Brain concentration in C57BL/6J mouse at 10 mg/kg , po measured after 30 mins by UPLC based tandem mass spectrometry analysis; type: ADME, organism-based; details: read-out: Ct
[20] = Plasma concentration in C57BL/6J mouse at 10 mg/kg , po measured after 30 mins by UPLC based tandem mass spectrometry analysis; type: ADME, organism-based
[21] = Ratio of drug concentration in brain to plasma in C57BL/6J mouse at 10 mg/kg , po measured after 30 mins by UPLC based tandem mass spectrometry analysis; type: ADME, organism-based; details: read-out: BPR
[22] = Chemical stability of compound in PBS buffer at pH 7.4 assessed as oxidized intermediate formation at 25 to 37 degreeC incubated for 7 days by HPLC based LC-MS analysis; type: physicochemical; details: pH 7.4, 168 h, time 7 day
[23] = Chemical stability of compound in PBS buffer at pH 7.4 assessed as cyclized intermediate formation at 25 to 37 degreeC incubated for 7 days by HPLC based LC-MS analysis; type: physicochemical; details: pH 7.4, 168 h, time 7 day

T1 sequence (P11275 whole entry): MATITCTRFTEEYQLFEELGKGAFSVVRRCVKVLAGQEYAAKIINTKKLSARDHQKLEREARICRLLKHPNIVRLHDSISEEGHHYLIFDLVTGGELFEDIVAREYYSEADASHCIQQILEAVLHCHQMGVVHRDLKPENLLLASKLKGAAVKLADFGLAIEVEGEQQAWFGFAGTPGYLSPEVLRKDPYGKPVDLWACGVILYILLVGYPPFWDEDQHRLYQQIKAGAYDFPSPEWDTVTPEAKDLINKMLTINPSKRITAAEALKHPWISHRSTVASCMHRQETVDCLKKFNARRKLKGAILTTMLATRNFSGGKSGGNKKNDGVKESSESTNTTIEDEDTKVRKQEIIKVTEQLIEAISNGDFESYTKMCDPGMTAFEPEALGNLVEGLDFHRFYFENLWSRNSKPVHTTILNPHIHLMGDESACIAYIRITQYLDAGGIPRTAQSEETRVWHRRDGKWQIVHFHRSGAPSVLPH
Calcium/calmodulin-dependent protein kinase type II subunit alpha (Homo sapiens, UniProt Q9UQM7), sequence (Q9UQM7 whole entry): as the sequence (P11275 whole entry) above, with N324S counted along it
Calcium/calmodulin-dependent protein kinase type II subunit alpha (Rattus norvegicus), sequence (P11275 whole entry): as the sequence (P11275 whole entry) above

With `O=c1[nH]nc(Cc2cc(O)ccc2Oc2ccccc2Cl)[nH]1` as the compound, how does the Ki [1] read?
Its Ki is 420 nM.

For `O=C(O)Cc1cc(O)ccc1Oc1ccccc1O`, which Ki [1] is on record?
The Ki was 33 nM.

With `O=C(O)Cc1ccc(O)cc1Sc1ccccc1` as the compound, how does the Ki [1] read?
The Ki was 77 nM.

With `O=C(O)Cc1cc(O)ccc1Oc1c(Cl)cccc1Cl` as the compound, how does the Ki [1] read?
Its Ki is 70 nM.

Which Ki [2] does the source give for `Oc1ccc(Oc2ccccc2Cl)c(-c2nnn[nH]2)c1` here?
The Ki was 40000 nM.

What about the Ki [1] of the same compound?
The Ki was 25000 nM.

Which Papp B→A at 3 µM (MDR1 (P-gp) [3]) does the source give for `O=C(O)Cc1ccc(O)cc1Nc1c(Cl)cccc1Cl` here?
The Papp B→A at 3 µM was 3.73 ×10⁻⁶ cm/s.

And the half-life [4]?
Its half-life is 10 h.

What about the half-life [5] of the same compound?
The half-life was 24 h.

And the Papp B→A at 3 µM (BCRP [6])?
Its Papp B→A at 3 µM is 4.03 ×10⁻⁶ cm/s.

And the Kp at 0.5 h [7]?
Its Kp at 0.5 h is 0.013.

And the Papp A→B at 3 µM (MDR1 (P-gp) [8])?
The Papp A→B at 3 µM was 4.66 ×10⁻⁶ cm/s.

And the concentration at 0.5 h [9]?
The concentration at 0.5 h was 6790 ng/mL.

What about the Papp A→B at 3 µM (MDR1 (P-gp) [10]) of the same compound?
Its Papp A→B at 3 µM is 4.15 ×10⁻⁶ cm/s.

What about the Papp A→B at 3 µM (BCRP [11]) of the same compound?
The Papp A→B at 3 µM was 1.25 ×10⁻⁶ cm/s.

And the Papp A→B at 3 µM (BCRP [12])?
The Papp A→B at 3 µM was 3.05 ×10⁻⁶ cm/s.

What about the Papp B→A at 3 µM (MDR1 (P-gp) [13]) of the same compound?
The Papp B→A at 3 µM was 2.71 ×10⁻⁶ cm/s.

And the concentration at 0.5 h [14]?
Its concentration at 0.5 h is 88 ng/mL.

What about the Papp B→A at 3 µM (BCRP [15]) of the same compound?
Its Papp B→A at 3 µM is 19.1 ×10⁻⁶ cm/s.

Which inhibition [16] does the source give for `NC(=O)Cc1cc(O)ccc1Oc1ccccc1Cl` here?
Its inhibition is less than 50%.

What about the Ki [1] of the same compound?
Its Ki is greater than 100000 nM.

With `O=C(O)Cc1ccccc1Nc1c(Cl)cccc1Cl` [DICLOFENAC] as the compound, how does the Ki [1] read?
The Ki was 5100 nM.

For `O=C(O)Cc1ccc(O)cc1Oc1c(Cl)cccc1Cl`, which Ki [1] is on record?
The Ki was 31 nM.

Which Ki [1] does the source give for `O=C(O)Cc1ccc(O)cc1Cc1ccccc1` here?
The Ki was 500 nM.

With `O=C(O)Cc1ccccc1Nc1c(Cl)cc(O)cc1Cl` [4'-HYDROXY-DICLOFENAC] as the compound, how does the Ki [17] read?
The Ki was 2100 nM.

With `O=C(O)Cc1cccc(O)c1` [3-Hydroxyphenylacetate] as the compound, how does the IC50 [18] read?
The IC50 was 130 nM.

And the Ki [18]?
The Ki was 126 nM.

Which concentration at 0.5 h [19] does the source give for `Oc1ccc(Oc2ccccc2Cl)c(Cc2nnn[nH]2)c1` here?
The concentration at 0.5 h was 22 ng/mL.

And the Ki [2]?
The Ki was 94 nM.

And the concentration at 0.5 h [20]?
The concentration at 0.5 h was 1970 ng/mL.

What about the Ki [1] of the same compound?
The Ki was 70 nM.

And the Kp at 0.5 h [21]?
Its Kp at 0.5 h is 0.012.

For `O=C(O)Cc1ccc(O)cc1Oc1ccccc1`, which Ki [1] is on record?
The Ki was 47 nM.

Which Ki [17] does the source give for `O=C(O)/C=C/c1ccccc1` [CINNAMIC ACID] here?
The Ki was greater than 100000 nM.

Which Ki [1] does the source give for `O=C(O)Cc1cc(O)ccc1Oc1ccc([N+](=O)[O-])cc1Cl` here?
The Ki was 14 nM.

For `O=C(O)C(F)(F)c1cc(O)ccc1Oc1ccccc1Cl`, which Ki [1] is on record?
Its Ki is 1200 nM.

For `O=C(O)Cc1ccc(O)cc1`, which Ki [17] is on record?
The Ki was 2200 nM.

Which concentration at 0.5 h [19] does the source give for `O=C(O)Cc1ccc(O)cc1Oc1ccccc1Cl` here?
The concentration at 0.5 h was 308 ng/mL.

What about the Stability [22] of the same compound?
Its Stability is “Stable”.

And the Ki [2]?
The Ki was 53 nM.

And the concentration at 0.5 h [20]?
The concentration at 0.5 h was 29400 ng/mL.

What about the Stability [23] of the same compound?
The Stability was “Stable”.

What about the Ki [1] of the same compound?
The Ki was 27 nM.

And the Kp at 0.5 h [21]?
Its Kp at 0.5 h is 0.011.

For `O=C(O)/C=C/c1ccc(O)cc1` [COUMARIC ACID], which Ki [17] is on record?
The Ki was greater than 100000 nM.

With `O=C1Cc2cc(O)ccc2N1c1c(Cl)cccc1Cl` as the compound, how does the inhibition [16] read?
The inhibition was less than 50%.

What about the Ki [1] of the same compound?
Its Ki is greater than 100000 nM.

Which Ki [1] does the source give for `O=C(O)Cc1ccccc1Oc1ccc(O)cc1CC(=O)O` here?
The Ki was 830 nM.

Which results are given for `O=C(O)Cc1ccccc1O`?
IC50 [18]: 2100 nM; Ki [18]: 2000 nM

With `Oc1ccc(Oc2ccccc2Cl)c(Cc2cc(O)no2)c1` as the compound, how does the Ki [1] read?
The Ki was 20000 nM.

With `O=C(O)CCCO` [OXYBATE] as the compound, how does the Ki [17] read?
Its Ki is 4300 nM.

With `O=c1[nH]c(Cc2cc(O)ccc2Oc2ccccc2Cl)no1` as the compound, how does the Ki [1] read?
The Ki was 1200 nM.
